Patent US9233968B1, “Kinase inhibitors” (Allergan, Inc., priority 2014, dated 2016)

Key:
PDGFRβ = PDGFRβ (Homo sapiens (Human), UniProt P09619); experiment: PDGFRβ Cellular Assay (FLIPR, PDGF-induced intracellular calcium in NHDF-Ad); type: cell-based; conditions: PDGF-BB stimulation 30 ng/mL, read-out: Receptor PDGFRβ IC50
Experimental: (§1) Automated FLIPR (Fluorometric Imaging Plate Reader) technology was used to screen for inhibitors of PDGF-induced increases in intracellular calcium levels in fluorescent dye loaded endothelial cells. NHDF-Ad (Normal Human Dermal Fibroblasts, Adult; Lonza) were seeded in 384-well fibronectin coated black-walled plates overnight at 37° C./5% CO2. Cells were loaded with calcium indicator Fluo-4 for 45 minutes at 37° C. Cells were washed 2 times (Elx405, Biotek Instruments) to remove extracellular dye. For screening, cells were pre-incubated with test agents for 30 minutes, at a single concentration (10 μM) or at concentrations ranging from 0.0001 to 10.0 μM followed by PDGF-BB stimulation (30 ng/mL). […] Data were generated by determining max-min fluorescence levels for unstimulated, stimulated, and drug treated samples. IC50 values for test compounds were calculated from % inhibition of PDGF-BB stimulated responses in the absence of inhibitor.

VEGFR2 = VEGFR2 (Homo sapiens (Human), UniProt P35968); experiment: VEGFR2 Cellular Assay (FLIPR, VEGF induced intracellular calcium in HUVEC); type: cell-based; conditions: VEGF165 stimulation 10 ng/mL, read-out: Receptor VEGFR2 IC50
Sequence of VEGFR2 (P35968 20-1356): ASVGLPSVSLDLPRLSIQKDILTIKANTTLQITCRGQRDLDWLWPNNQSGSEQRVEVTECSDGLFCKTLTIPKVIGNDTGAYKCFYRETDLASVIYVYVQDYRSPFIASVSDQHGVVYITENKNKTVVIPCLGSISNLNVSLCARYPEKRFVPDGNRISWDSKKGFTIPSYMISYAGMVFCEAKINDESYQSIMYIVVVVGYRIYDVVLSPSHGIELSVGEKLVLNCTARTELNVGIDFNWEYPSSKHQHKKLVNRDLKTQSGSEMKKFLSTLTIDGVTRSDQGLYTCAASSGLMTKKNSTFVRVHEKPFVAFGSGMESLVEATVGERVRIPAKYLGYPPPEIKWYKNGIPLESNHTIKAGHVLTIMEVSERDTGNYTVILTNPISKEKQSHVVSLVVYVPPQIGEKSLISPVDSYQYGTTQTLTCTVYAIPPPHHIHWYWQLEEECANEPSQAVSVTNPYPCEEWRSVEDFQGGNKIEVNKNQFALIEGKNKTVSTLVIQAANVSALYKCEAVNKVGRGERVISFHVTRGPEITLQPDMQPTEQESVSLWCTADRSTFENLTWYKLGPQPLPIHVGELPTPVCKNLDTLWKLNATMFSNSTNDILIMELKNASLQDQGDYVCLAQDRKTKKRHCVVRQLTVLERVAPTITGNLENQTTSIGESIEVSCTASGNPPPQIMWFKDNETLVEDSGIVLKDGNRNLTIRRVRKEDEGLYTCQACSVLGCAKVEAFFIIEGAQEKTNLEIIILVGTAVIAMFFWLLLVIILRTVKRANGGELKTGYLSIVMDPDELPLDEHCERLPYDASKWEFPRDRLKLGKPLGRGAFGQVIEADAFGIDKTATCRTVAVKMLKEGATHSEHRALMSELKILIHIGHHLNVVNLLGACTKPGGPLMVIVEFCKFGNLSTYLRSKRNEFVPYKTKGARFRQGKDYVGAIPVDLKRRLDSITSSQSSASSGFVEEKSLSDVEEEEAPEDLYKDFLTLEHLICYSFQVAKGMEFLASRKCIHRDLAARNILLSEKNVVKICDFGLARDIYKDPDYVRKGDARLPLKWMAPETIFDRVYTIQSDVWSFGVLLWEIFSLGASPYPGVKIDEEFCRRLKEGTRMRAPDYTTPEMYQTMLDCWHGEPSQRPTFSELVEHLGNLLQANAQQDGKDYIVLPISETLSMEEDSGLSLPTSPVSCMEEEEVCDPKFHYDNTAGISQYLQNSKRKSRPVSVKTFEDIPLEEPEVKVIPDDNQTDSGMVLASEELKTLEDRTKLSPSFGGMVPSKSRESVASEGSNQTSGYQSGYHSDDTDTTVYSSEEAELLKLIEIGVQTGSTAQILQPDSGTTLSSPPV
Experimental: as §1, with “VEGFR2 Cellular Assay Automated” for “Automated”, “of VEGF induced” for “of PDGF-induced”, “cells. HUVEC (human umbilical vein endothelial cells) (Clonetics)” for “cells. NHDF-Ad (Normal Human Dermal Fibroblasts, Adult; Lonza)”, “by VEGF165” for “by PDGF-BB”, “stimulation (10” for “stimulation (30”, “of VEGF” for “of PDGF-BB”

[1] = biological target: PDGFRβ (cytoplasmic domain PDGFR-b protein) (Homo sapiens (Human), UniProt P09619); experiment: PDGFRβ Kinase Assay; type: biochemical; conditions: 36 μM ATP, poly-Glu-Tyr substrate; read-out: Enzyme PDGFRβ IC50
Sequence of PDGFRβ (cytoplasmic domain PDGFR-b protein) (P09619 554-1106): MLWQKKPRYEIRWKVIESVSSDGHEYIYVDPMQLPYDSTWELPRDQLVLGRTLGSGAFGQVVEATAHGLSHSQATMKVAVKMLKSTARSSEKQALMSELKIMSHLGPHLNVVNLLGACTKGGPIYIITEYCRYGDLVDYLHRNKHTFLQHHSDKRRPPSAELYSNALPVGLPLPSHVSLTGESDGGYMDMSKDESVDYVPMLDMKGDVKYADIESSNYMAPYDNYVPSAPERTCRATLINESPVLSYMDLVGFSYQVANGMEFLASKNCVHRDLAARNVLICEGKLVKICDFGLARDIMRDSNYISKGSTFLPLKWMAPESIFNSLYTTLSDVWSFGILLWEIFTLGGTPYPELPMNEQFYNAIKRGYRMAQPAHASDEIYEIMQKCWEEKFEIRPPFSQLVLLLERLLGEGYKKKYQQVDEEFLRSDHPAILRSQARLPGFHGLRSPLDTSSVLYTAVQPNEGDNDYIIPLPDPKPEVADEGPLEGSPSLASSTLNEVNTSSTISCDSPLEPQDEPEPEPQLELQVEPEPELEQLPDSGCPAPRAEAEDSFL
Experimental: Biochemical PDGFRβ kinase assays were performed in 96 well microtiter plates that were coated overnight with 75 μg of poly-Glu-Tyr (4:1) in 10 mM Phosphate Buffered Saline (PBS), pH 7.4. The coated plates were washed with 2 mls per well PBS+0.05% Tween-20 (PBS-T), blocked by incubation with PBS containing 1% BSA, then washed with 2 mls per well PBS-T prior to starting the reaction. […] Reactions were initiated by the addition 20 μl per well of kinase buffer containing 200-300 ng purified cytoplasmic domain PDGFR-b protein (Millipore). Following a 60 minute incubation at 30° C., the reactions were washed 2 mls per well PBS-T. 100 μl of a monoclonal anti-phosphotyrosine antibody-peroxidase conjugate diluted 1:10,000 in PBS-T was added to the wells for 30 minutes. Following a 2 mls per well wash with PBS-Tween-20, 100 μl of O-Phenylenediamine Dihydrochloride in phosphate-citrate buffer, containing urea hydrogen peroxide, was added to the wells for 7-10 minutes as a colorimetric substrate for the peroxidase. […] IC50 values for compound inhibition were calculated directly from graphs of optical density (arbitrary units) versus compound concentration following subtraction of blank values.

[2] = biological target: VEGFR2 (cytoplasmic domain KDR protein) (Homo sapiens (Human), UniProt P35968); experiment: VEGFR2 Kinase Assay (biochemical KDR kinase assay); conditions: 2.7 μM ATP, poly-Glu-Tyr substrate; read-out: Enzyme VEGFR2 IC50
Sequence of VEGFR2 (cytoplasmic domain KDR protein) (P35968 786-1356): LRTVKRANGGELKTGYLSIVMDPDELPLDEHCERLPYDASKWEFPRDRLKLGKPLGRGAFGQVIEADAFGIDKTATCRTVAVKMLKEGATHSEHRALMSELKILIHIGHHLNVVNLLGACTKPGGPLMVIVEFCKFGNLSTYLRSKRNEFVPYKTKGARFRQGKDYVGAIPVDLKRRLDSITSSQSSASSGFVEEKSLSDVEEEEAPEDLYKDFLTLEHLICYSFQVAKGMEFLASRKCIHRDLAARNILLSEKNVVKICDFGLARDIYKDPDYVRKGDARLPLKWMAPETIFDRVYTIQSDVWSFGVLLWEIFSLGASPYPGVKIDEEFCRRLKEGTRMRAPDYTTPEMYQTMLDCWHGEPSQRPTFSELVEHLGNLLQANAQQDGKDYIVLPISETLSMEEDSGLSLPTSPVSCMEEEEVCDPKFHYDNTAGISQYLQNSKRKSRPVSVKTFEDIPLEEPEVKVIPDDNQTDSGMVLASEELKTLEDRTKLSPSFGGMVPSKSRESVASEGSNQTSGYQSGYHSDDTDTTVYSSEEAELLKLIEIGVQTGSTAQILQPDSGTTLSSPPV
Experimental: Biochemical KDR kinase assays were performed in 96 well microtiter plates that were coated overnight with 75 μg/well of poly-Glu-Tyr (4:1) in 10 mM Phosphate Buffered Saline (PBS), pH 7.4. The coated plates were washed with 2 mls per well PBS+0.05% Tween-20 (PBS-T), blocked by incubation with PBS containing 1% BSA, then washed with 2 mls per well PBS-T prior to starting the reaction. Reactions were carried out in 100 μL reaction volumes containing 2.7 μM ATP in kinase buffer (50 mM Hepes buffer pH 7.4, 20 mM MgCl2, 0.1 mM MnCl2 and 0.2 mM Na3VO4). […] Reactions were initiated by the addition 20 μl per well of kinase buffer containing 200-300 ng purified cytoplasmic domain KDR protein (BPS Bioscience, San Diego, Calif.). Following a 15 minute incubation at 30° C., the reactions were washed 2 mls per well PBS-T. 100 μl of a monoclonal anti-phosphotyrosine antibody-peroxidase conjugate diluted 1:10,000 in PBS-T was added to the wells for 30 minutes. Following a 2 mls per well wash with PBS-Tween-20, 100 μl of O-Phenylenediamine Dihydrochloride in phosphate-citrate buffer, containing urea hydrogen peroxide, was added to the wells for 7-10 minutes as a colorimetric substrate for the peroxidase. The reaction was terminated by the addition of 100 μl of 2.5N H2SO4 to each well and read using a microplate ELISA reader set at 492 nm. IC50 values for compound inhibition were calculated directly from graphs of optical density (arbitrary units) versus compound concentration following subtraction of blank values.

Sequence of PDGFRβ (P09619 33-1106): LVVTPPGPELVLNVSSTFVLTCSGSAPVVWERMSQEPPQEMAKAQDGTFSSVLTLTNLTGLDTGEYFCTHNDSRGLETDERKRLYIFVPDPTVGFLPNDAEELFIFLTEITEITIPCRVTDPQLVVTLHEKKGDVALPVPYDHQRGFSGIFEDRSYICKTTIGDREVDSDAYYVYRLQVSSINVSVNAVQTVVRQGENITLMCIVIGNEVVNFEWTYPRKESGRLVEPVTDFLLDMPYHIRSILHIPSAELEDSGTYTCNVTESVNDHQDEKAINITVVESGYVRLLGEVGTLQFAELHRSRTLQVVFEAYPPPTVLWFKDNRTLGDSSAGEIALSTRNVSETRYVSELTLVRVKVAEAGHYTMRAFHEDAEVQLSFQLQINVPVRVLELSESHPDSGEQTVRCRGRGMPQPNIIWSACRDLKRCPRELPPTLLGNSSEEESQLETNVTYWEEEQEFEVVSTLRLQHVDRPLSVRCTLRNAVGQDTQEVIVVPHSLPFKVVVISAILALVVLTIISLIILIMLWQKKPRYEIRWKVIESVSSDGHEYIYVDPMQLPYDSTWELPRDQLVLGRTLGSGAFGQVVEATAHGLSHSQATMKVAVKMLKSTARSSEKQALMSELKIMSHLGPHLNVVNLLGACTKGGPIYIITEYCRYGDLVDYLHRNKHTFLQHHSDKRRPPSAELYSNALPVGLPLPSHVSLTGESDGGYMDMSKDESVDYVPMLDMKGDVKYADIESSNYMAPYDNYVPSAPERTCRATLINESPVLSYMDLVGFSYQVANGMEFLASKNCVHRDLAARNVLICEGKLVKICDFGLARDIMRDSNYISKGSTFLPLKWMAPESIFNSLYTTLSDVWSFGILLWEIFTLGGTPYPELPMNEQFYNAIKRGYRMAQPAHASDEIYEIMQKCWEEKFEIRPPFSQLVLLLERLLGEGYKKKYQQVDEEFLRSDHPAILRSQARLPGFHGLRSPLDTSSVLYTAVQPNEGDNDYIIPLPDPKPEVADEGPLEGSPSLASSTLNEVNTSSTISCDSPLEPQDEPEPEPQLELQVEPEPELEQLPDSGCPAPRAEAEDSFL

Row | SMILES | IC50 (PDGFRβ) | IC50 (VEGFR2) | IC50 [1] | IC50 [2]
1 | Nc1ccc(C#Cc2ccc3nc(NC(=O)Nc4ccc(F)c(Cl)c4)cn3n2)cc1 [Example 14, 1-{6-[(4-aminophenyl)ethynyl]imidazo[1,2-b]pyridazin-2-yl}-3-(3-chloro-4-fluorophenyl)urea] | 10500 nM | > 10000 nM | 6570 nM | 1690 nM
2 | O=C(Nc1cccc(C#Cc2ccc3nccn3n2)c1)c1cccc(C(F)(F)F)c1 [Example 22, N-[3-(imidazo[1,2-b]pyridazin-6-ylethynyl)phenyl]-3-(trifluoromethyl)benzamide] | 1630 nM | 1280 nM | 628 nM | 279 nM
3 | Cc1ccc(NC(=O)Nc2ccc(C#Cc3ccc4nccn4n3)cc2)cc1 [Example 13, 1-[4-(imidazo[1,2-b]pyridazin-6-ylethynyl)phenyl]-3-(4-methylphenyl)urea] |  |  | 67 nM | 
4 | O=C(Nc1ccc(C#Cc2ccc3nccn3n2)cc1)Nc1cccc(C(F)(F)F)c1 [Example 2, 1-[4-(imidazo[1,2-b]pyridazin-6-ylethynyl)phenyl]-3-[3-(trifluoromethyl)phenyl]urea] | 457 nM | 962 nM | 32 nM | 47 nM
5 | O=C(Nc1ccccc1)Nc1ccc(C#Cc2ccc3nccn3n2)cc1 [Example 8, 1-[4-(imidazo[1,2-b]pyridazin-6-ylethynyl)phenyl]-3-phenylurea] |  | 5430 nM | 185 nM | 267 nM
6 | Cc1cccc(NC(=O)Nc2ccc(C#Cc3ccc4nc(N)cn4n3)cc2)c1 [Example 1, 1-{4-[(2-aminoimidazo[1,2-b]pyridazin-6-yl)ethynyl]phenyl}-3-(3-methylphenyl)urea] | 227 nM | 51 nM | 34 nM | 20 nM
7 | Nc1n[nH]c2cccc(C#Cc3cccc(NC(=O)Nc4ccccc4)c3)c12 [Example 32, 1-{3-[(3-amino-1H-indazol-4-yl)ethynyl]phenyl}-3-phenylurea] |  | 20 nM |  | 41 nM
8 | O=C(Nc1ccc(C#Cc2ccc3nc(NC(=O)Nc4cc(C(F)(F)F)ccc4F)cn3n2)cc1)Nc1cc(C(F)(F)F)ccc1F [Example 10, 1-[2-fluoro-5-(trifluoromethyl)phenyl]-3-[4-({2-[({[2-fluoro-5-(trifluoromethyl)phenyl]amino}carbonyl)amino]imidazo[1,2-b]pyridazin-6-yl}ethynyl)phenyl]urea] | > 10000 nM | > 10000 nM | > 10000 nM | 1430 nM
9 | Cc1ccc(F)c(NC(=O)Nc2cccc(C#Cc3ccc4nccn4n3)c2)c1 [Example 29, 1-(2-fluoro-5-methylphenyl)-3-[3-(imidazo[1,2-b]pyridazin-6-ylethynyl)phenyl]urea] |  |  | > 10000 nM | 4700 nM
10 | Nc1cn2nc(C#Cc3ccc(NC(=O)Nc4cc(C(F)(F)F)ccc4F)cc3)ccc2n1 [Example 4, 1-{4-[(2-aminoimidazo[1,2-b]pyridazin-6-yl)ethynyl]phenyl}-3-[2-fluoro-5-(trifluoromethyl)phenyl]urea] | 516 nM | 423 nM | 55 nM | 73 nM
11 | Cc1ccc(F)c(C(=O)Nc2cccc(C#Cc3ccc4nccn4n3)c2)c1 [Example 26, 2-fluoro-N-[3-(imidazo[1,2-b]pyridazin-6-ylethynyl)phenyl]-5-methylbenzamide] | > 10000 nM | 3040 nM | 6080 nM | 1620 nM
12 | O=C(Nc1ccc(C#Cc2ccc3nc(NC(=O)Nc4ccc(F)c(Cl)c4)cn3n2)cc1)Nc1ccc(F)c(Cl)c1 [Example 15, 1-(3-chloro-4-fluorophenyl)-3-(4-{[2-({[(3-chloro-4-fluorophenyl)amino]carbonyl}amino)imidazo[1,2-b]pyridazin-6-yl]ethynyl}phenyl)urea] | 3630 nM | > 10000 nM | 3610 nM | 2930 nM
13 | Cc1cccc(C(=O)Nc2cccc(C#Cc3ccc4nccn4n3)c2)c1 [Example 23, N-[3-(imidazo[1,2-b]pyridazin-6-ylethynyl)phenyl]-3-methylbenzamide] |  | 862 nM | 1530 nM | 295 nM
14 | O=C(Nc1ccc(C#Cc2ccc3nccn3n2)cc1)Nc1ccc(F)c(Cl)c1 [Example 5, 1-(3-chloro-4-fluorophenyl)-3-[4-(imidazo[1,2-b]pyridazin-6-ylethynyl)phenyl]urea] |  |  |  | 96 nM
15 | Cc1ccc(F)c(NC(=O)Nc2ccccc2C#Cc2ccc3nccn3n2)c1 [Example 30, 1-(2-fluoro-5-methylphenyl)-3-[2-(imidazo[1,2-b]pyridazin-6-ylethynyl)phenyl]urea] |  |  | > 10000 nM | 1800 nM
16 | Cc1ccc(F)c(NC(=O)Nc2cccc(C#Cc3cccc4[nH]nc(N)c34)c2)c1 [Example 31, 1-{3-[(3-amino-1H-indazol-4-yl)ethynyl]phenyl}-3-(2-fluoro-5-methylphenyl)urea] |  | 16 nM |  | 21 nM
17 | CC(=O)Nc1cn2nc(C#Cc3ccc(NC(=O)Nc4cccc(C)c4)cc3)ccc2n1 [Example 11, N-(6-{[4-({[(3-methylphenyl)amino]carbonyl}amino)phenyl]ethynyl}imidazo[1,2-b]pyridazin-2-yl)acetamide] | > 10000 nM | > 10000 nM |  | 3180 nM
18 | Cc1ccc(F)c(NC(=O)Nc2ccc(C#Cc3ccc4nccn4n3)cc2)c1 [Example 6, 1-(2-fluoro-5-methylphenyl)-3-[4-(imidazo[1,2-b]pyridazin-6-ylethynyl)phenyl]urea] |  |  |  | 101 nM
19 | O=C(Nc1ccc(C#Cc2ccc3nccn3n2)cc1)Nc1ccc(Cl)c(C(F)(F)F)c1 [Example 7, 1-[4-chloro-3-(trifluoromethyl)phenyl]-3-[4-(imidazo[1,2-b]pyridazin-6-ylethynyl)phenyl]urea] |  | 2050 nM | 43 nM | 127 nM
20 | Cc1cccc(NC(=O)Nc2ccc(C#Cc3ccc4nc(NC(=O)C5CC5)cn4n3)cc2)c1 [Example 12, N-(6-{[4-({[(3-methylphenyl)amino]carbonyl}amino)phenyl]ethynyl}imidazo[1,2-b]pyridazin-2-yl)cyclopropanecarboxamide] | > 10000 nM | > 10000 nM |  | 1310 nM
21 | Cc1ccc(F)c(NC(=O)Nc2ccc(C#Cc3cccc4[nH]nc(N)c34)cc2)c1 [Example 33, 1-{4-[(3-amino-1H-indazol-4-yl)ethynyl]phenyl}-3-(2-fluoro-5-methylphenyl)urea] |  | 162 nM |  | 90 nM
22 | O=C(Nc1ccc(C#Cc2ccc3nccn3n2)cc1)Nc1cc(C(F)(F)F)ccc1F [Example 9, 1-[2-fluoro-5-(trifluoromethyl)phenyl]-3-[4-(imidazo[1,2-b]pyridazin-6-ylethynyl)phenyl]urea] |  | 8420 nM | 93 nM | 448 nM
